{
  "source": "the RepoRT retention time repository (doi:10.1016/j.jhazmat.2019.121712)",
  "data": [
    {"experiment": "Thermo Scientific Acclaim RSLC 120 C18, 100 × 2.1 mm, 2.2 µm, 30 °C; A: 90% water + 10% methanol + 0.01% formic acid + 5 mM ammonium formate; B: methanol + 0.01% formic acid + 5 mM ammonium formate; gradient (min/%B) 0.1/1 3/39 14/99.9 16/99.9", "details": "stereoisomer not certain", "units": {"LC retention time": "min"}, "values": [
      {"smiles": "CCC(CC)OC1C=C(C(=O)O)CC(N)C1NC(C)=O", "note": "(stereo not given)", "LC retention time": 4.73},
      {"smiles": "CN(C)CCCn1c2c(c3ccccc31)CCCCCC2", "LC retention time": 9.26},
      {"smiles": "CCCc1nn(C)c2c(=O)[nH]c(-c3cc(S(=O)(=O)N4CCN(C)CC4)ccc3OCC)nc12", "LC retention time": 7.88},
      {"smiles": "CCC(CN(C)C)(CN(C)C)OC(=O)c1ccccc1", "LC retention time": 6.07},
      {"smiles": "Cc1ccccc1N1CCN(CCc2nnc3n2CCCC3)CC1", "LC retention time": 5.66},
      {"smiles": "COc1cccc2c(C(=O)NC3C4(C)CCC(C4)C3(C)C)cn(CCN3CCOCC3)c12", "note": "(stereo not given)", "LC retention time": 11.7},
      {"smiles": "CNC(=O)Oc1cccc2c1OC(C)(C)C2", "LC retention time": 7.01},
      {"smiles": "Cc1cc2c(OCC(O)CNC(C)C)cccc2[nH]1", "note": "(stereo not given)", "LC retention time": 4.44},
      {"smiles": "CC(C)NCC(O)COc1cccc2[nH]c3ccccc3c12", "note": "(stereo not given)", "LC retention time": 5.49},
      {"smiles": "COc1ccc2c(c1O)-c1c3c(cc4c1C(C2)N(C)CC4)OCO3", "note": "(stereo not given)", "LC retention time": 4.36},
      {"smiles": "CCCCCCn1c(=O)c2c(ncn2C)n(C)c1=O", "LC retention time": 9.44},
      {"smiles": "CC(Cc1ccc(C(C)(C)C)cc1)CN1CCCCC1", "note": "(stereo not given)", "LC retention time": 8.62},
      {"smiles": "CCNC(C)Cc1ccccc1", "note": "(stereo not given)", "LC retention time": 4.4},
      {"smiles": "CC1=C(C)S(=O)(=O)CCS1(=O)=O", "LC retention time": 3.73},
      {"smiles": "CCN(CC)CCOCCOC(=O)C1(c2ccccc2)CCCC1", "LC retention time": 7.87},
      {"smiles": "CCCCOC(=O)c1ccccc1C(=O)OCCCC", "LC retention time": 12},
      {"smiles": "CC(=O)Nc1ccc(OC(=O)c2ccccc2OC(C)=O)cc1", "LC retention time": 7.41},
      {"smiles": "CCCCN(CCCC)CCCC", "LC retention time": 5.28},
      {"smiles": "CC(C)NCC(O)c1ccc(N)c(C#N)c1", "note": "(stereo not given)", "LC retention time": 2.99},
      {"smiles": "CCC1C2CC3C4N(C)c5ccccc5C45CC(C2C5O)N3C1O", "note": "(stereo not given)", "LC retention time": 5.19},
      {"smiles": "CCOC(=O)CCN(SN(C)C(=O)Oc1cccc2c1OC(C)(C)C2)C(C)C", "LC retention time": 11.9},
      {"smiles": "CNC(=O)Oc1ccccc1C(C)C", "LC retention time": 8.12},
      {"smiles": "CN(C(=O)COc1nc2ccccc2s1)c1ccccc1", "LC retention time": 9.83},
      {"smiles": "CNc1c(C)n(C)n(-c2ccccc2)c1=O", "LC retention time": 4.74},
      {"smiles": "NCCCCC(NC(CCc1ccccc1)C(=O)O)C(=O)N1CCCC1C(=O)O", "note": "(stereo not given)", "LC retention time": 3.98},
      {"smiles": "CCOP(=O)(OCC)SCSCC", "LC retention time": 8.6},
      {"smiles": "CCN1CCCC1CNC(=O)c1cc(S(=O)(=O)CC)c(N)cc1OC", "note": "(stereo not given)", "LC retention time": 3.88},
      {"smiles": "c1ccc(CN(CCN2CCCC2)c2ccccc2)cc1", "LC retention time": 7.19},
      {"smiles": "CCN1CCCC1CNC(=O)c1cc(S(N)(=O)=O)ccc1OC", "note": "(stereo not given)", "LC retention time": 2.94},
      {"smiles": "CC1NCCOC1c1ccccc1", "note": "(stereo not given)", "LC retention time": 4.14},
      {"smiles": "CN1CCN(CCC=C2c3ccccc3Sc3ccc(S(=O)(=O)N(C)C)cc32)CC1", "LC retention time": 8.38},
      {"smiles": "CCCN1CC(NS(=O)(=O)N(CC)CC)CC2Cc3c(O)cccc3CC21", "note": "(stereo not given)", "LC retention time": 5.24},
      {"smiles": "OCc1cc(C(O)CNCCCCCCOCCCCc2ccccc2)ccc1O", "note": "(stereo not given)", "LC retention time": 8.83},
      {"smiles": "CCCOc1ccc(C(=O)CCN2CCCCC2)cc1", "LC retention time": 6.24},
      {"smiles": "CCCCCn1cc(C(=O)Cc2ccc(OC)cc2)c2ccccc21", "LC retention time": 11.6},
      {"smiles": "O=C1N=CCC=N1", "LC retention time": 4.49},
      {"smiles": "Cc1ccc(N)c(C)c1", "LC retention time": 5.04},
      {"smiles": "CCCc1nc(C)c2c(=O)[nH]c(-c3cc(S(=O)(=O)N4CCN(CC)CC4)ccc3OCC)nn12", "LC retention time": 8.11},
      {"smiles": "COP(=S)(OC)SCN1C(=O)c2ccccc2C1=O", "LC retention time": 8.94},
      {"smiles": "Cc1cccc2sc3nncn3c12", "LC retention time": 5.93},
      {"smiles": "CCS(=O)(=O)Cc1ccccc1OC(=O)NC", "LC retention time": 4.63},
      {"smiles": "c1ccc(C(CCN2CCCCC2)c2ccccc2)cc1", "LC retention time": 6.82},
      {"smiles": "COc1ccc2c3c1OC1C(O)C=CC4C(C2)NCCC341", "note": "(stereo not given)", "LC retention time": 3.5},
      {"smiles": "CN(CCO)CC(O)Cn1cnc2c1c(=O)n(C)c(=O)n2C", "note": "(stereo not given)", "LC retention time": 2.99},
      {"smiles": "O=C(c1cccc2ccccc12)c1cn(CCN2CCOCC2)c2cccc(O)c12", "LC retention time": 10.1},
      {"smiles": "NC(=O)c1ncn(C2OC(CO)C(O)C2O)n1", "note": "(stereo not given)", "LC retention time": 1.36},
      {"smiles": "COCCCOc1ccnc(CS(=O)c2nc3ccccc3[nH]2)c1C", "note": "(stereo not given)", "LC retention time": 7.52},
      {"smiles": "CC(C)NCC(O)c1ccc(NS(C)(=O)=O)cc1", "note": "(stereo not given)", "LC retention time": 2.96},
      {"smiles": "CCCCCn1nc(C(=O)NC(C(N)=O)C(C)C)c2ccccc21", "note": "(stereo not given)", "LC retention time": 10.5},
      {"smiles": "Cc1ccc2n[nH]nc2c1", "LC retention time": 5.83},
      {"smiles": "CCOC(=O)C1C(OC(=O)c2ccccc2)CC2CCC1N2C", "note": "(stereo not given)", "LC retention time": 5.46},
      {"smiles": "CC(C)(C)N1CCC(c2ccccc2)(c2ccccc2)CC1", "LC retention time": 6.72},
      {"smiles": "CCOP(=S)(OCC)SCSCC", "LC retention time": 11.4},
      {"smiles": "Cc1cc(=O)n(-c2ccccc2)n1C", "LC retention time": 4.63},
      {"smiles": "CCOc1ccc2c3c1OC1C(O)C=CC4C(C2)N(C)CCC341", "note": "(stereo not given)", "LC retention time": 4.08},
      {"smiles": "CC(=O)SC1CC2=CC(=O)CCC2(C)C2CCC3(C)C(CCC34CCC(=O)O4)C12", "note": "(stereo not given)", "LC retention time": 9.24},
      {"smiles": "CC(=O)N=c1sc(S(N)(=O)=O)nn1C", "LC retention time": 4.28},
      {"smiles": "COc1ccc(C(=O)c2cn(CCCCCO)c3ccccc23)cc1", "LC retention time": 9.18},
      {"smiles": "CNC(=O)ON=CC(C)(C)S(C)=O", "note": "(stereo not given)", "LC retention time": 3.5},
      {"smiles": "CCN(CC)C(=O)C(C)Oc1cccc2ccccc12", "note": "(stereo not given)", "LC retention time": 10.2},
      {"smiles": "CCCOP(=O)(OCCC)Oc1ccc(SC)cc1", "LC retention time": 10.8},
      {"smiles": "CN(C)CC1CCCCC1(O)c1cccc(O)c1", "note": "(stereo not given)", "LC retention time": 4.06},
      {"smiles": "Nc1ccc(S(=O)(=O)c2ccc(N)cc2)cc1", "LC retention time": 4.13},
      {"smiles": "Cc1c(C(C)C)c(=O)n(-c2ccccc2)n1C", "LC retention time": 7.23},
      {"smiles": "CNCCCN1c2ccccc2CCc2ccccc21", "LC retention time": 8.08},
      {"smiles": "O=C1NC(=O)C2CC=CCC12", "note": "(stereo not given)", "LC retention time": 4.37},
      {"smiles": "CCCc1nc(C)c2c(=O)[nH]c(-c3cc(S(=O)(=O)N4CCCCC4)ccc3OCC)nn12", "LC retention time": 10.6},
      {"smiles": "C=CC=CCC1=C(C)C(OC(=O)C2C(C=C(C)C)C2(C)C)CC1=O", "note": "(stereo not given)", "LC retention time": 12.9},
      {"smiles": "CCCCCn1nc(C(=O)NC23CC4CC(CC(C4)C2)C3)c2ccccc21", "LC retention time": 14},
      {"smiles": "CN(C)CCc1c[nH]c2cccc(O)c12", "LC retention time": 3.29},
      {"smiles": "CN(CC=CC#CC(C)(C)C)Cc1cccc2ccccc12", "LC retention time": 11},
      {"smiles": "CCC1(c2ccccc2)C(=O)NCNC1=O", "LC retention time": 5.29},
      {"smiles": "CCC(C)c1ccccc1OC(=O)NC", "note": "(stereo not given)", "LC retention time": 9.05},
      {"smiles": "NC(N)=NCC1COc2ccccc2O1", "note": "(stereo not given)", "LC retention time": 4.57},
      {"smiles": "CN1CCCC1Cc1c[nH]c2ccc(CCS(=O)(=O)c3ccccc3)cc12", "note": "(stereo not given)", "LC retention time": 5.51},
      {"smiles": "Nc1nc(N)nc(NC2CC2)n1", "LC retention time": 2.78},
      {"smiles": "CCCCCCn1cc(C(=O)c2cccc3ccccc23)c2ccccc21", "LC retention time": 12.9},
      {"smiles": "CCCc1nn(C)c2c(=O)[nH]c(-c3cc(C(=O)CN4CCCCC4)ccc3OCC)nc12", "LC retention time": 7.14},
      {"smiles": "CCNC1(c2cccc(OC)c2)CCCCC1=O", "note": "(stereo not given)", "LC retention time": 4.93},
      {"smiles": "CCCCCn1nc(C(=O)NC(C)(C)c2ccccc2)c2ccccc21", "LC retention time": 12.5},
      {"smiles": "CCC(CC)Nc1c([N+](=O)[O-])cc(C)c(C)c1[N+](=O)[O-]", "LC retention time": 12.8},
      {"smiles": "CN1CCC23c4c5ccc(O)c4OC2C(O)C=CC3C1C5", "note": "(stereo not given)", "LC retention time": 2.54},
      {"smiles": "CNC(=C[N+](=O)[O-])NCCSCc1ccc(C[N+](C)(C)[O-])o1", "LC retention time": 3.43},
      {"smiles": "CCN(CC)C(=O)Nc1ccc(OCC(O)CNC(C)(C)C)c(C(C)=O)c1", "note": "(stereo not given)", "LC retention time": 5.24},
      {"smiles": "CC(O)(C(N)=O)c1ccccc1", "note": "(stereo not given)", "LC retention time": 12.9}
    ]}
  ]
}
